≈ marks a conversion by molar mass, not a printed value. Read-outs that look alike come from different tables or passages of the source.
Legend:
[1] = tested on: Collectotrichum graminicola (Cg); assay: Growth inhibition assay of fungal pathogens, Cg; type: cell-based; settings: 48 h
Outline: (§1)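 Percent inhibition derived at 48 hours from OD600 and visual scores versus 2% DMSO control, with media+DMSO blank as background. Spore inocula in 17% V8 medium were sized from 48 h growth curves; compounds tested at final 50/10/2 or 2/0.4/0.08 ppm.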

[2] = tested on: Phytophthora capsici (Pc); assay: Growth inhibition assay of fungal pathogens, Pc; type: cell-based; settings: 48 h
Outline: as §1

C. krusei = assay: Antifungal Activity Assay (broth microtiter MIC), C. krusei; type: cell-based, Candida krusei; settings: Pichia kudriavzevii, ATCC6258, 48 h
Outline: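 MIC read by eye at 48 h, comparing challenged wells with the growth control. Yeasts grown overnight on Sabouraud dextrose agar at 35° C, suspended in RPMI 1640+MOPS and added at 2.5×10^3 CFU/mL final, following CLSI M27-A3.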

[3] = read-out: Concentration at 90% Inhibition Cg, Collectotrichum graminicola, growth inhibition at 48 hours vs 2% DMSO control
[4] = read-out: Concentration at 90% Inhibition Cg, Collectotrichum graminicola, growth inhibition vs 2% DMSO control at 48 hours
[5] = read-out: Concentration at 90% Inhibition Pc, Phytophthora capsici, growth inhibition at 48 hours vs 2% DMSO control
[6] = read-out: Concentration at 90% Inhibition Pc, Phytophthora capsici, growth inhibition vs 2% DMSO control at 48 hours
[7] = read-out: MIC, C. krusei ATCC 6258, Table 3a, 3 replicates, MIC recorded at 48 h
[8] = read-out: MIC, C. krusei ATCC 6258, Table 3b (additional results), 3 replicates, MIC recorded at 48 h
[9] = Collectotrichum graminicola, growth inhibition at 48 hours vs 2% DMSO control, read-out: Concentration at 90% Inhibition Cg
[10] = Collectotrichum graminicola, growth inhibition vs 2% DMSO control at 48 hours, read-out: Concentration at 90% Inhibition Cg
[11] = growth inhibition at 48 hours vs 2% DMSO control, read-out: Concentration at 90% Inhibition Pc
[12] = growth inhibition vs 2% DMSO control at 48 hours, read-out: Concentration at 90% Inhibition Pc
[13] = Table 3a, ATCC 6258, 3 replicates, MIC recorded at 48 h, read-out: MIC, C. krusei ATCC 6258
[14] = Table 3b (additional results), ATCC 6258, 3 replicates, MIC recorded at 48 h, read-out: MIC, C. krusei ATCC 6258

Compound	IC90 [1, 3] [µg/mL]	IC90 [1, 4] [µg/mL]	IC90 [2, 5] [µg/mL]	IC90 [2, 6] [µg/mL]	MIC (C. krusei; [7]) [µg/mL]	MIC (C. krusei; [8]) [µg/mL]	IC90 [1, 9] [µg/mL]	IC90 [1, 10] [µg/mL]	IC90 [2, 11] [µg/mL]	IC90 [2, 12] [µg/mL]	MIC (C. krusei; [13]) [µg/mL]	MIC (C. krusei; [14]) [µg/mL]
COc1ccccc1[C@H](Cn1c(=O)n(C(C)(C)C(=O)N2CC(O)C2)c(=O)c2c(C)c(-n3nccn3)sc21)OC1CCOCC1 [Compound I-19, (R)-3-(1-(3-hydroxyazetidin-1-yl)-2-methyl-1-oxopropan-2-yl)-1-(2-(2-methoxyphenyl)-2-((tetrahydro-2H-pyran-4-yl)oxy)ethyl)-5-methyl-6-(2H-1,2,3-triazol-2-yl)thieno[2,3-d]pyrimidine-2,4(1H,3H)-dione]	> 50	> 50	> 50	> 50	2.1 to 4 (≈ 3.36 to 6.4 µM)	2.01 to 4 (≈ 3.22 to 6.4 µM)						
COc1ccc(F)cc1[C@H](Cn1c(=O)n(C(C)(C)C(=O)N2CCCCC2)c(=O)c2c(C)c(-n3nccn3)sc21)OC1CCOCC1 [Compound I-24, (R)-1-(2-(5-fluoro-2-methoxyphenyl)-2-((tetrahydro-2H-pyran-4-yl)oxy)ethyl)-5-methyl-3-(2-methyl-1-oxo-1-(piperidin-1-yl)propan-2-yl)-6-(2H-1,2,3-triazol-2-yl)thieno[2,3-d]pyrimidine-2,4(1H,3H)-dione]	0.08 (≈ 0.122 µM)	0.08 (≈ 0.122 µM)	> 50	> 50	0.25 to 1 (≈ 0.382 to 1.53 µM)	0.25 to 1 (≈ 0.382 to 1.53 µM)						
COc1ccc(F)cc1[C@H](Cn1c(=O)n(C(C)(C)C(=O)N2CC(O)C2)c(=O)c2c(C)c(-n3nccn3)sc21)OC1CCOCC1 [Compound I-26, (R)-1-(2-(5-fluoro-2-methoxyphenyl)-2-((tetrahydro-2H-pyran-4-yl)oxy)ethyl)-3-(1-(3-hydroxyazetidin-1-yl)-2-methyl-1-oxopropan-2-yl)-5-methyl-6-(2H-1,2,3-triazol-2-yl)thieno[2,3-d]pyrimidine-2,4(1H,3H)-dione]							10 (≈ 15.6 µM)	> 50	> 50	> 50	2.1 to 4 (≈ 3.27 to 6.22 µM)	1.01 to 2 (≈ 1.57 to 3.11 µM)
COc1ccc(F)cc1[C@H](Cn1c(=O)n(C(C)(C)C(=O)NC2CCC2)c(=O)c2c(C)c(-n3nccn3)sc21)OC1CCOCC1 [Compound I-27, (R)—N-cyclobutyl-2-(1-(2-(5-fluoro-2-methoxyphenyl)-2-((tetrahydro-2H-pyran-4-yl)oxy)ethyl)-5-methyl-2,4-dioxo-6-(2H-1,2,3-triazol-2-yl)-1,4-dihydrothieno[2,3-d]pyrimidin-3(2H)-yl)-2-methylpropanamide]							0.4 (≈ 0.624 µM)	0.4 (≈ 0.624 µM)	10 (≈ 15.6 µM)	> 50	0.06 to 0.24 (≈ 0.0936 to 0.375 µM)	0.06 to 0.249 (≈ 0.0936 to 0.389 µM)
COc1ccc(F)cc1[C@H](Cn1c(=O)n(C(C)(C)C(=O)NC2CCCCC2)c(=O)c2c(C)c(-n3nccn3)sc21)OC1CCOCC1 [Compound I-28, (R)—N-cyclohexyl-2-(1-(2-(5-fluoro-2-methoxyphenyl)-2-((tetrahydro-2H-pyran-4-yl)oxy)ethyl)-5-methyl-2,4-dioxo-6-(2H-1,2,3-triazol-2-yl)-1,4-dihydrothieno[2,3-d]pyrimidin-3(2H)-yl)-2-methylpropanamide]	2 (≈ 2.99 µM)	2 (≈ 2.99 µM)	> 50	> 50	0.06 to 0.24 (≈ 0.0897 to 0.359 µM)	0.06 to 0.249 (≈ 0.0897 to 0.372 µM)						
COc1ccc(F)cc1[C@H](Cn1c(=O)n(C(C)(C)C(=O)NCC(C)C)c(=O)c2c(C)c(-n3nccn3)sc21)OC1CCOCC1 [Compound I-29, (R)-2-(1-(2-(5-fluoro-2-methoxyphenyl)-2-((tetrahydro-2H-pyran-4-yl)oxy)ethyl)-5-methyl-2,4-dioxo-6-(2H-1,2,3-triazol-2-yl)-1,4-dihydro-thieno[2,3-d]pyrimidin-3(2H)-yl)-N-isobutyl-2-methylpropanamide]							0.4 (≈ 0.622 µM)	0.4 (≈ 0.622 µM)	> 50	> 50	0.06 to 0.24 (≈ 0.0933 to 0.373 µM)	0.06 to 0.249 (≈ 0.0933 to 0.387 µM)
COc1ccc(F)cc1[C@H](Cn1c(=O)n(C(C)(C)C(N)=O)c(=O)c2c(C)c(-n3nccn3)sc21)OC1CCC(=O)CC1 [Compound I-31, (R)-2-(1-(2-(5-fluoro-2-methoxyphenyl)-2-((4-oxocyclo-hexyl)oxy)ethyl)-5-methyl-2,4-dioxo-6-(2H-1,2,3-triazol-2-yl)-1,4-dihydrothieno[2,3-d]pyrimidin-3(2H)-yl)-2-methylpropanamide]							10 (≈ 16.7 µM)	> 50	> 50	> 50	0.25 to 1 (≈ 0.418 to 1.67 µM)	0.25 to 1 (≈ 0.418 to 1.67 µM)
COc1ccc(F)cc1[C@H](Cn1c(=O)n(C(C)(C)C(=O)NC(C)C)c(=O)c2c(C)c(-n3nccn3)sc21)OC1CCC(=O)CC1 [Compound I-32, (R)-2-(1-(2-(5-fluoro-2-methoxyphenyl)-2-((4-oxocyclo-hexyl)oxy)ethyl)-5-methyl-2,4-dioxo-6-(2H-1,2,3-triazol-2-yl)-1,4-dihydro-thieno[2,3-d]pyrimidin-3(2H)-yl)-N-isopropyl-2-methylpropanamide]	2 (≈ 3.12 µM)	2 (≈ 3.12 µM)	> 50	> 50	0.06 to 0.24 (≈ 0.0936 to 0.375 µM)	0.06 to 0.249 (≈ 0.0936 to 0.389 µM)						
COc1ccc(F)cc1[C@H](Cn1c(=O)n(C(C)(C)C(=O)N2CCCC2)c(=O)c2c(C)c(-n3nccn3)sc21)OC1CCC(=O)CC1 [Compound I-33, (R)-1-(2-(5-fluoro-2-methoxyphenyl)-2-((4-oxocyclo-hexyl)oxy)ethyl)-5-methyl-3-(2-methyl-1-oxo-1-(pyrrolidin-1-yl)propan-2-yl)-6-(2H-1,2,3-triazol-2-yl)thieno[2,3-d]pyrimidine-2,4(1H,3H)-dione]							0.4 (≈ 0.613 µM)	0.4 (≈ 0.613 µM)	> 50	> 50	0.25 to 1 (≈ 0.383 to 1.53 µM)	0.25 to 1 (≈ 0.383 to 1.53 µM)
COc1ccc(F)cc1[C@H](Cn1c(=O)n(C(C)(C)C(=O)N2CCCCC2)c(=O)c2c(C)c(-n3nccn3)sc21)OC1CCC(=O)CC1 [Compound I-34, (R)-1-(2-(5-fluoro-2-methoxyphenyl)-2-((4-oxocyclohexyl)oxy)ethyl)-5-methyl-3-(2-methyl-1-oxo-1-(piperidin-1-yl)propan-2-yl)-6-(2H-1,2,3-triazol-2-yl)thieno[2,3-d]pyrimidine-2,4(1H,3H)-dione]	0.4 (≈ 0.6 µM)	0.4 (≈ 0.6 µM)	> 50	> 50	0.25 to 1 (≈ 0.375 to 1.5 µM)	1.01 to 2 (≈ 1.51 to 3 µM)						
COc1ccc(F)cc1[C@H](Cn1c(=O)n(CC(=O)NC(C)C)c(=O)c2c(C)c(-n3nccn3)sc21)OC(C)C [Compound I-35, (R)-2-(1-(2-(5-fluoro-2-methoxyphenyl)-2-isopropoxy-ethyl)-5-methyl-2,4-dioxo-6-(2H-1,2,3-triazol-2-yl)-1,4-dihydrothieno[2,3-d]pyrimidin-3(2H)-yl)-N-isopropylacetamide]	> 50	> 50	> 50	> 50	2.1 to 4 (≈ 3.76 to 7.16 µM)	> 4.01						
CCO[C@@H](Cn1c(=O)n(C(C)(C)C(=O)N2CCCC2)c(=O)c2c(C)c(-n3nccn3)sc21)c1cc(F)ccc1OC [Compound I-42, (R)-1-(2-ethoxy-2-(5-fluoro-2-methoxyphenyl)ethyl)-5-methyl-3-(2-methyl-1-oxo-1-(pyrrolidin-1-yl)propan-2-yl)-6-(2H-1,2,3-triazol-2-yl)thieno[2,3-d]pyrimidine-2,4(1H,3H)-dione]							0.08 (≈ 0.137 µM)	0.08 (≈ 0.137 µM)	> 50	> 50	0.25 to 1 (≈ 0.428 to 1.71 µM)	1.01 to 2 (≈ 1.73 to 3.42 µM)
COc1ccc(F)cc1[C@H](Cn1c(=O)n(C(C)(C)C(=O)NC(C)C)c(=O)c2c(C)c(-n3nccn3)sc21)OCCO [Compound I-43, (R)-2-(1-(2-(5-fluoro-2-methoxyphenyl)-2-(2-hydroxyethoxy)ethyl)-5-methyl-2,4-dioxo-6-(2H-1,2,3-triazol-2-yl)-1,4-dihydrothieno[2,3-d]pyrimidin-3(2H)-yl)-N-isopropyl-2-methylpropanamide]	0.4 (≈ 0.68 µM)	0.4 (≈ 0.68 µM)	2 (≈ 3.4 µM)	10 (≈ 17 µM)	0.25 to 1 (≈ 0.425 to 1.7 µM)	0.25 to 1 (≈ 0.425 to 1.7 µM)						
COc1ccc(F)cc1[C@H](Cn1c(=O)n(C(C)(C)C(=O)N2CCCC2)c(=O)c2c(C)c(-n3nccn3)sc21)OCCO [Compound I-44, (R)-1-(2-(5-fluoro-2-methoxyphenyl)-2-(2-hydroxyethoxy)ethyl)-5-methyl-3-(2-methyl-1-oxo-1-(pyrrolidin-1-yl)propan-2-yl)-6-(2H-1,2,3-triazol-2-yl)thieno[2,3-d]pyrimidine-2,4(1H,3H)-dione]							2 (≈ 3.33 µM)	2 (≈ 3.33 µM)	> 50	> 50	1.1 to 2 (≈ 1.83 to 3.33 µM)	1.01 to 2 (≈ 1.68 to 3.33 µM)
